Experimental data: article PMC10281804, “The structural basis of the talin–KANK1 interaction that coordinates the actin and microtubule cytoskeletons at focal adhesions” (Open Biology, 2023)

What was measured:
[1] = test system: KANK1 localization to focal adhesions of NIH3T3 fibroblasts; assay: KANK1 localization in vin880-expressing cells treated with ROCK inhibitor; format: cell-based, mouse
Method: NIH3T3 mouse fibroblasts and HEK293T human epithelial cells were obtained from the American Type Culture Collection (ATCC). The vinculin null and WT mouse embryonic fibroblasts (MEFs) originate from the Eileen Adamson laboratory. All cells were maintained in Dulbecco's Modified Eagle Medium (DMEM; Sigma) supplemented with 10% fetal bovine serum (FBS, Gibco), 1% L-glutamine (Sigma) and 1% non-essential amino acids (Sigma). Talin1&2 null cells were cultured in DMEM F-12 (Gibco) supplemented with 10% FBS, 1% L-glutamine, 1% non-essential amino acids and […] HEPES (Sigma). All cells were cultured at 37̊C supplied with 5% CO2 and 95% humidity. Transient transfections were performed using Lipofectamine LTX with Plus Reagent (Invitrogen) to NIH3T3 cells, Lipofectamine 2000 (Invitrogen) to talin null cells, and jetPRIME reagent (Polyplus) to MEFs and HEK293T cells, as per the manufacturer's instructions.
For fixed cell imaging, cells were cultured in glass-bottom dishes (IBL) coated with bovine fibronectin (Sigma) at a final concentration of 10 µg ml^−1. […]
(§1) Images of fixed samples in PBS were acquired at room temperature using an Olympus IX83 inverted microscope equipped with a 60×/1.42 PlanApo N oil objective and a QImaging Retiga R6 CCD camera, controlled by Metamorph software. Samples were illuminated using LEDs (UV/Cyan/Green-Yellow/Red, Lumencor) for fluorescence excitation; a Sedat filter set (DAPI/FITC/TRITC/Cy5, Chroma, 89000) was used.
FIJI-ImageJ [33] software was used to process all images. Cell-matrix adhesion size was quantified as described previously, by subtracting background signal using a rolling ball algorithm, followed by thresholding to select adhesion structures and the Analyze Particles function to quantify adhesions. […] Pearson's correlation coefficient of fluorescence signals (40 × 40 µm^2 square adhesion area) was measured by subtracting the background signal, followed by automatic thresholding and colocalization analysis using the Bioimaging and Optics Platform (BIOP) version JACoP plugin [34]. […]

mCherry–KANK1 = assay: MTS colocalization of truncated or mutated talin constructs with KANK1; format: cell-based, human; settings: MTS colocalization assay, cBAK-tagged talin constructs
Description: To examine the effect of these KANK1 mutations on talin interactions in cells, we next used a mitochondrial targeting system (MTS) which we previously used to screen for defined protein–protein interactions. In this assay, one protein is fused to a small peptide sequence from the pro-apoptotic protein BAK (cBAK) which leads to its insertion into the outer membrane of mitochondria. Proteins that interact with the cBAK-tagged protein will get recruited to mitochondria, and this recruitment can be verified either by visualizing colocalization using fluorescence microscopy (figure 4a) or by purification of mitochondria followed by detection of co-precipitates using biochemistry (figure 4b,c). […] To confirm that the interaction was meditated by the R7 domain, we performed the colocalization assays with truncated talin constructs. […]
as §1

| Compound | KANK1 localization (in words) ([1]; NIH3T3 cells expressing vin880 treated with Y-27632) | Pearson's mean correlation coefficient of KANK1/paxillin overlap ([1]; NIH3T3 with GFP–vin880 and mCherry–KANK1, Y-27632 50 µM, 60 min, 20 images (40 × 40 µm^2) per group, ± s.d., water control r = 0.59 ± 0.05, p < 0.001 (Welch's t-test)) | Percentage of belt-positive FAs ([1]; NIH3T3 with GFP–vin880 and mCherry–KANK1, Y-27632 50 µM, 60 min, FAs over 0.3 µm^2, n = 17, ± s.d., water control 17.90 ± 3.27% (n = 28), p < 0.001 (Welch's t-test)) [%] | colocalization of talin construct with KANK1 (mCherry–KANK1) |
| --- | --- | --- | --- | --- |
| C[C@@H](N)[C@H]1CC[C@H](C(=O)Nc2ccncc2)CC1 [Y-27632] | KANK1 colocalized with paxillin in FAs throughout the whole FA structure | 0.82 ± 0.04 | 0.02 ± 0.10 |  |
| GFP–talin1G1404L–cBAK: GFP–talin1–cBAK with the R7 G1404L mutation |  |  |  | prevented colocalization |
